Reference: patent publication US3948890A, “4H-1,3-benzoxazin-2-one-3-acetohydroxamic acid derivatives” (Farmitalia Societa Farmaceutica Italia, priority 1971, dated 1976)
Where two headings read alike, the source gives them in different places.

Tests used:
[1] = tested on: albino male mice; test: Spontaneous behavior, motor coordination, muscular tension and nociceptive reflexes; type: in vivo; conditions: up to 200 mg/kg i.v., observation 5 hours
Source text: Among the compounds of the invention, 4H-1,3-benzoxazin-2-one-3-[N-(β-hydroxyethyl)-piperazino-methyl]-acetohydroxamic acid has been particularly studied and compared with 4H-1,3-benzoxazin-2-one-3-acetohydroxamic acid.

[2] = Antagonism to the reserpine induced syndrome (ptosis, rectal temperature); type: in vivo; set-up: Ptosis: scale not given here
[3] = Highest tolerated intraperitoneal dose; conditions: in vivo, ip
[4] = Acute toxicity (LD50), single oral and intravenous administration; type: in vivo, albino male mice; conditions: mouse, in vivo, single administration, within 48 hours
Method: (§1) The acute toxicity (LD50), determined on albino male mice (weight 20-22 g) by a single oral and intravenous administration, is settled within 48 hours.

[5] = tested on: albino male mice; test: as above; type: in vivo; conditions: intravenous route
Method: as §1

[6] = tested on: reserpinized swimming rat; test: Antireserpine effect in a behavior test, swimming rat; type: in vivo
[7] = 25.0 mg/kg intraperitoneal, + R (reserpine)
[8] = 50.0 mg/kg intraperitoneal, + R (reserpine)
[9] = 100.0 mg/kg intraperitoneal, + R (reserpine)
[10] = 25 mg/kg intraperitoneal, + R (reserpine)
[11] = 50 mg/kg intraperitoneal, + R (reserpine)
[12] = Table 4, 50 mg/kg intraperitoneal, reserpine not stated
[13] = reserpine alone, 3.0 mg/kg intraperitoneal

O=C(CN1Cc2ccccc2OC1=O)N(O)CN1CCN(CCO)CC1 [4H-1,3-benzoxazin-2-one-3-[N-(β-hydroxyethyl)piperazinomethyl] -acetohydroxamic acid]
motor apparatus coordination [1]: does not modify
muscular tension [1]: does not modify
nociceptive reflexes [1]: does not modify
spontaneous behavior [1]: does not modify
Ptosis [2, 7]: 24
Rectal temperature [2, 7]: 33.1 °C
Ptosis [2, 8]: 19
Rectal temperature [2, 8]: 35.6 °C
Ptosis [2, 9]: 2
Rectal temperature [2, 9]: 37.6 °C
antagonizing the hypothermia induced by reserpine ([2]; in words, Table 1): most active
antagonizing the ptosis induced by reserpine ([2]; in words, Table 1): most active
MTD ([3]; read-out: tolerated up to dose): ≥ 300 mg/kg
LD50 at 48 h ([4]; po, per os): > 3000 mg/kg
LD50 at 48 h ([4]; intravenous): 576 mg/kg
times less toxic than Imipramine [5]: about 20 times
less toxic than 4H-1,3-benzoxazin-2-one-3-acetohydroxamic acid ([5]; in words): about half again less toxic
Average time to get out of the basin [6, 10]: 28 s
Number of the animals which do not get out [6, 10]: 0/10
getting out of a basin full of water ([6]; in words, pretreated plus reserpine, versus control animals): manage to get out of the basin within a period of time slightly longer than that of the control animals

O=C(CN1Cc2ccccc2OC1=O)NO [4H-1,3-benzoxazin-2-one-3-acetohydroxamic acid]
Ptosis [2, 8]: 29
Rectal temperature [2, 8]: 36.0 °C
Ptosis [2, 9]: 5
Rectal temperature [2, 9]: 38.1 °C
LD50 at 48 h ([4]; po, per os): ~2000 mg/kg
LD50 at 48 h ([4]; intravenous): 350 mg/kg
Average time to get out of the basin [6, 11]: 25 s
Number of the animals which do not get out [6, 11]: 0/10

CCN(CC)CCN(CC)CN(O)C(=O)CN1Cc2ccccc2OC1=O [Example 2, 4H-1,3-benzoxazin-2-one-3-[(N,N,N'triethyl)-ethylenediaminomethyl]-acetohydroxamic acid]
LD50 at 48 h ([4]; po, per os): 2550 mg/kg
LD50 at 48 h ([4]; intravenous): 328 mg/kg
Average time to get out of the basin [6, 12]: 10 s
Number of the animals which do not get out [6, 12]: 1/10
test results ([6]; in words): good test results

CN(C)CCCN1c2ccccc2CCc2ccccc21 [Imipramine, reference compound]
Ptosis [2, 8]: 29
Rectal temperature [2, 8]: 36.0 °C
MTD ([3]; read-out: highest tolerated dose): 50 mg/kg
Average time to get out of the basin [6, 10]: 40 s
Number of the animals which do not get out [6, 10]: 7/10

COC(=O)[C@H]1[C@H]2C[C@@H]3c4[nH]c5cc(OC)ccc5c4CCN3C[C@H]2C[C@@H](OC(=O)c2cc(OC)c(OC)c(OC)c2)[C@@H]1OC [Reserpine, reference compound]
Ptosis [2, 13]: 40
Rectal temperature [2, 13]: 32.1 °C
getting out of a basin full of water ([6]; in words, reserpinized animals): can no longer get out of a basin full of water
Number of the animals which do not get out ([6]; reserpine alone, 5 mg/kg intraperitoneal): 10/10
